From the NIST ThermoML archive (doi:10.1016/j.fluid.2014.07.036)

Test: refractive index (other wavelength) (dimensionless); xn = mol fraction of the nth substance listed
Settings: 85 kPa, Liquid, Wavelength=632.8 nm, minimum deviation angle

CCCCCCCC[n+]1ccn(C)c1.F[B-](F)(F)F [1-methyl-3-octylimidazolium tetrafluoroborate] + CCCCCCO
Settings | refractive index
289.88 K, x1 = 0.004 | 1.4182
289.88 K, x1 = 0.354 | 1.4268
290.62 K, x1 = 0.007 | 1.418
290.62 K, x1 = 0.346 | 1.4264
291.35 K, x1 = 0.01 | 1.4178
291.35 K, x1 = 0.338 | 1.426
292.06 K, x1 = 0.009 | 1.4175
292.06 K, x1 = 0.325 | 1.4255
292.78 K, x1 = 0.011 | 1.4173
292.78 K, x1 = 0.317 | 1.4251
293.48 K, x1 = 0.014 | 1.4171
293.48 K, x1 = 0.31 | 1.4247
294.37 K, x1 = 1 | 1.4327
294.83 K, x1 = 0.018 | 1.4167
294.83 K, x1 = 0.289 | 1.4238
295.51 K, x1 = 0.02 | 1.4165
295.51 K, x1 = 0.282 | 1.4234
295.86 K, x1 = 1 | 1.4323
296.12 K, x1 = 0.021 | 1.4163
296.12 K, x1 = 0.269 | 1.4229
296.61 K, x1 = 0.024 | 1.4162
296.61 K, x1 = 0.263 | 1.4226
297.04 K, x1 = 0.026 | 1.4161
297.04 K, x1 = 0.252 | 1.4222
297.21 K, x1 = 1 | 1.4319
297.39 K, x1 = 0.027 | 1.416
297.39 K, x1 = 0.245 | 1.4219
297.66 K, x1 = 0.031 | 1.416
297.66 K, x1 = 0.24 | 1.4217
297.92 K, x1 = 0.034 | 1.416
297.92 K, x1 = 0.236 | 1.4215
298.17 K, x1 = 0.034 | 1.4159
298.17 K, x1 = 0.227 | 1.4212
298.38 K, x1 = 0.037 | 1.4159
298.38 K, x1 = 0.222 | 1.421
298.57 K, x1 = 0.042 | 1.416
298.57 K, x1 = 0.221 | 1.4209
298.73 K, x1 = 0.044 | 1.416
298.73 K, x1 = 0.219 | 1.4208
298.88 K, x1 = 0.046 | 1.416
298.88 K, x1 = 0.213 | 1.4206
298.93 K, x1 = 1 | 1.4313
299.01 K, x1 = 0.045 | 1.4159
299.01 K, x1 = 0.207 | 1.4204
299.12 K, x1 = 0.049 | 1.416
299.12 K, x1 = 0.208 | 1.4204
299.21 K, x1 = 0.05 | 1.416
299.21 K, x1 = 0.202 | 1.4202
299.37 K, x1 = 0.056 | 1.4161
299.37 K, x1 = 0.196 | 1.42
299.44 K, x1 = 0.057 | 1.4161
299.44 K, x1 = 0.193 | 1.4199
299.5 K, x1 = 0.061 | 1.4162
299.5 K, x1 = 0.194 | 1.4199
299.55 K, x1 = 0.061 | 1.4162
299.55 K, x1 = 0.191 | 1.4198
299.6 K, x1 = 0.062 | 1.4162
299.6 K, x1 = 0.188 | 1.4197
299.66 K, x1 = 0.063 | 1.4162
299.66 K, x1 = 0.184 | 1.4196
299.7 K, x1 = 0.067 | 1.4163
299.7 K, x1 = 0.181 | 1.4195
299.74 K, x1 = 0.067 | 1.4163
299.74 K, x1 = 0.178 | 1.4194
299.79 K, x1 = 0.071 | 1.4164
299.79 K, x1 = 0.175 | 1.4193
299.83 K, x1 = 0.075 | 1.4165
299.83 K, x1 = 0.175 | 1.4193
299.86 K, x1 = 0.075 | 1.4165
299.86 K, x1 = 0.172 | 1.4192
299.9 K, x1 = 0.079 | 1.4166
299.9 K, x1 = 0.169 | 1.4191
299.95 K, x1 = 0.083 | 1.4167
299.95 K, x1 = 0.165 | 1.419
299.97 K, x1 = 0.084 | 1.4167
299.97 K, x1 = 0.158 | 1.4188
299.99 K, x1 = 0.087 | 1.4168
299.99 K, x1 = 0.155 | 1.4187
300 K, x1 = 0.091 | 1.4169
300 K, x1 = 0.155 | 1.4187
300.02 K, x1 = 0.091 | 1.4169
300.02 K, x1 = 0.148 | 1.4185
300.03 K, x1 = 0.095 | 1.417
300.03 K, x1 = 0.148 | 1.4185
300.04 K, x1 = 0.098 | 1.4171
300.04 K, x1 = 0.144 | 1.4184
300.05 K, x1 = 0.102 | 1.4172
300.05 K, x1 = 0.141 | 1.4183
300.06 K, x1 = 0.102 | 1.4172
300.06 K, x1 = 0.105 | 1.4173
300.06 K, x1 = 0.109 | 1.4174
300.06 K, x1 = 0.134 | 1.4181
300.06 K, x1 = 0.137 | 1.4182
300.06 K, x1 = 0.141 | 1.4183
300.67 K, x1 = 1 | 1.4309
301.31 K, x1 = 0.1 | 1.4166
302.86 K, x1 = 0.1 | 1.416
302.95 K, x1 = 1 | 1.4303
303.16 K, x1 = 0.2 | 1.4188
304.31 K, x1 = 0.2 | 1.4183
304.45 K, x1 = 0.1 | 1.4155
304.54 K, x1 = 0.4 | 1.4225
304.54 K, x1 = 0.497 | 1.4239
304.6 K, x1 = 1 | 1.4298
305 K, x1 = 0.3 | 1.4202
305.51 K, x1 = 0.2 | 1.4179
305.52 K, x1 = 0.6 | 1.4251
305.52 K, x1 = 0.699 | 1.4263
305.69 K, x1 = 0.497 | 1.4236
305.73 K, x1 = 0.4 | 1.4221
305.93 K, x1 = 0.3 | 1.4199
306.12 K, x1 = 0.1 | 1.4148
306.24 K, x1 = 1 | 1.4293
306.66 K, x1 = 0.2 | 1.4175
306.68 K, x1 = 0.699 | 1.426
307.04 K, x1 = 0.6 | 1.4247
307.07 K, x1 = 0.3 | 1.4196
307.1 K, x1 = 0.891 | 1.428
307.23 K, x1 = 0.4 | 1.4216
307.73 K, x1 = 0.497 | 1.4229
307.83 K, x1 = 0.1 | 1.4142
307.92 K, x1 = 0.2 | 1.417
308.25 K, x1 = 0.699 | 1.4255
308.37 K, x1 = 0.798 | 1.4267
308.59 K, x1 = 0.6 | 1.4242
308.7 K, x1 = 0.3 | 1.419
308.74 K, x1 = 0.4 | 1.4211
308.75 K, x1 = 0.891 | 1.4276
309.13 K, x1 = 0.497 | 1.4225
309.18 K, x1 = 0.1 | 1.4137
309.19 K, x1 = 0.2 | 1.4165
309.66 K, x1 = 0.798 | 1.4264
309.72 K, x1 = 0.699 | 1.4251
310.02 K, x1 = 0.6 | 1.4237
310.19 K, x1 = 0.891 | 1.4272
310.59 K, x1 = 0.3 | 1.4184
310.6 K, x1 = 0.4 | 1.4204
310.63 K, x1 = 0.798 | 1.4261
310.77 K, x1 = 0.497 | 1.422
311.29 K, x1 = 0.699 | 1.4246
311.31 K, x1 = 0.891 | 1.4268
311.64 K, x1 = 0.6 | 1.4233
312.14 K, x1 = 0.3 | 1.4179
312.14 K, x1 = 0.4 | 1.4199
312.15 K, x1 = 0.798 | 1.4257
312.81 K, x1 = 0.699 | 1.4242
312.9 K, x1 = 0.497 | 1.4214
312.9 K, x1 = 0.6 | 1.4229
313.38 K, x1 = 0.891 | 1.4263
313.81 K, x1 = 0.798 | 1.4253
315.28 K, x1 = 0.798 | 1.4248
315.28 K, x1 = 0.891 | 1.4258
